# Source: the supplement of paper PMC10307832
# Experiments:
# Assay in all cases: relative viability (nuclei count vs DMSO), 5 days (fraction); higher = more cells survive
# GW-2580 = compound: COC1=CC=C(C=C1)COC2=C(C=C(C=C2)CC3=CN=C(N=C3N)N)OC [GW-2580]
# Method in brief: (§1)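 Following overnight incubation at 37 °C, lung cancer cell lines in 1536-well plates were pinned with five library-drug doses (not always all listed) in √10 steps on vehicle-anchored plates. The cells then spent 5 days without medium change before a combined fix, permeabilisation and Hoechst stain, 4× imaging and MetaXpress nuclear counts. Viability is the treated-to-vehicle ratio of nuclei, taken as the median across plates. Only plates with control CV below 25% and at least one doubling passed.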
# Fedratinib = compound: Cc1cnc(Nc2ccc(OCCN3CCCC3)cc2)nc1Nc1cccc(S(=O)(=O)NC(C)(C)C)c1 [Fedratinib]
# Method in brief: as §1
# Fedratinib + Dasatinib = compound: Cc1cnc(Nc2ccc(OCCN3CCCC3)cc2)nc1Nc1cccc(S(=O)(=O)NC(C)(C)C)c1 [Fedratinib] + Cc1nc(Nc2ncc(C(=O)Nc3c(C)cccc3Cl)s2)cc(N2CCN(CCO)CC2)n1 [Dasatinib] (partner 0.075 µM)
# Method in brief: (§2)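 Dosing by pin tool came one day after lung cancer cell lines were seeded in 1536-well plates, using either one drug or a fixed anchor-drug dose plus five library-drug doses (not always all listed) in √10 steps. After 5 days, nuclei were counted on 4× images. Relative viability is treated-well nuclei count divided by vehicle-well nuclei count, and values are medians of duplicate plates.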
# GW-2580 + Alpelisib = compound: COC1=CC=C(C=C1)COC2=C(C=C(C=C2)CC3=CN=C(N=C3N)N)OC [GW-2580] + Cc1nc(NC(=O)N2CCC[C@H]2C(N)=O)sc1-c1ccnc(C(C)(C)C(F)(F)F)c1 [Alpelisib] (partner 2 µM)
# Method in brief: as §2
# Fedratinib + Pemetrexed = compound: Cc1cnc(Nc2ccc(OCCN3CCCC3)cc2)nc1Nc1cccc(S(=O)(=O)NC(C)(C)C)c1 [Fedratinib] + Nc1nc2[nH]cc(CCc3ccc(C(=O)N[C@@H](CCC(=O)O)C(=O)O)cc3)c2c(=O)[nH]1 [Pemetrexed] (partner 0.2 µM)
# Method in brief: as §2
Cell Line,relative viability (GW-2580; 0.08 µM),relative viability (GW-2580; 0.8 µM),relative viability (GW-2580; 2.53 µM),relative viability (GW-2580; 8 µM),relative viability (Fedratinib; 0.1 µM),relative viability (Fedratinib; 0.3162 µM),relative viability (Fedratinib; 1 µM),relative viability (Fedratinib + Dasatinib; first compound 0.1 µM),relative viability (Fedratinib + Dasatinib; first compound 0.3162 µM),relative viability (Fedratinib + Dasatinib; first compound 1 µM),relative viability (GW-2580 + Alpelisib; first compound 0.08 µM),relative viability (GW-2580 + Alpelisib; first compound 0.8 µM),relative viability (GW-2580 + Alpelisib; first compound 2.53 µM),relative viability (GW-2580 + Alpelisib; first compound 8 µM),relative viability (Fedratinib + Pemetrexed; first compound 0.1 µM),relative viability (Fedratinib + Pemetrexed; first compound 0.3162 µM),relative viability (Fedratinib + Pemetrexed; first compound 1 µM)
NCI-H322M,0.941,1.1,0.971,0.946,0.873,1,0.678,0.254,0.24,0.222,0.833,0.912,0.855,0.795,0.61,0.651,0.538
NCI-H358,0.965,1.03,0.874,0.789,0.999,0.911,0.884,0.148,0.147,0.129,0.967,0.872,0.851,0.775,0.175,0.155,0.156
NCI-H441,1.07,0.924,1.01,1.14,1.03,1.04,0.734,0.618,0.314,0.493,0.972,0.853,0.718,0.699,0.267,0.242,0.232
NCI-H460,1.07,1.05,1.01,0.952,0.997,0.974,0.979,0.496,0.415,0.329,0.49,0.464,0.44,0.511,0.0603,0.0665,0.0598
NCI-H520,1.09,1.13,0.894,1.12,0.93,0.997,0.9,0.18,0.205,0.196,1.02,0.988,0.837,0.966,0.804,0.59,0.436
NCI-H596,1.03,1.07,1.02,1.18,0.99,0.973,0.851,0.512,0.628,0.538,0.486,0.525,0.516,0.471,0.511,0.511,0.426
NCI-H647,1.12,1.14,0.846,0.97,0.867,0.952,0.777,0.21,0.203,0.142,1.44,1.45,1.04,1.13,0.172,0.146,0.134
NCI-H650,0.974,1.04,0.817,0.961,0.709,0.892,0.418,0.378,0.434,0.394,1.26,1.06,0.914,1.14,0.866,0.887,0.835
NCI-H661,1.03,1.04,0.951,0.814,0.876,1.06,0.914,0.83,0.912,0.612,0.542,0.835,0.426,0.479,0.939,0.928,0.883
NCI-H838,1.09,1.05,0.884,1,0.928,0.996,0.8,0.281,0.29,0.239,1.01,1.06,1.15,1.07,0.236,0.224,0.225
NCI-H1355,1.03,1.11,0.837,0.976,1,0.993,0.904,0.67,0.75,0.374,0.816,0.937,0.694,0.883,1.08,1.05,1.06
NCI-H1395,0.866,0.979,0.877,0.935,0.784,0.955,0.7,0.36,0.45,0.378,1.04,0.941,1.03,1.01,0.728,0.952,0.665
NCI-H1437,1,1.06,0.926,0.835,0.978,0.982,0.926,0.301,0.409,0.329,1.12,1.11,0.892,0.81,0.244,0.309,0.313
NCI-H1563,0.982,0.966,0.876,0.912,0.949,1.04,0.933,0.504,0.44,0.429,0.989,1.05,0.853,0.869,0.737,0.624,0.824
NCI-H1651,1.06,1.08,0.952,0.977,0.958,0.984,0.945,0.437,0.418,0.329,1.26,1.17,0.954,0.934,0.457,0.543,0.57
NCI-H1666,0.976,1.38,0.937,0.97,0.859,1.04,0.982,0.843,0.675,0.731,1.17,1.21,1,1.03,0.793,0.869,0.831
NCI-H1734,0.987,0.986,0.912,0.914,1,0.97,0.853,0.455,0.464,0.4,0.697,0.761,0.654,0.671,0.442,0.435,0.356
NCI-H1755,1.06,1.07,0.944,0.878,0.991,1,0.909,0.351,0.404,0.39,1.02,1.02,0.787,0.945,0.506,0.416,0.449
